According to US20230091047A1 (priority 2019, published 2023):

Key:
[1] = test system: HBV (HepG2.117 cell line, inducibly HBV producing); experiment: Anti-HBV activity: intracellular HBV DNA by real-time PCR in HepG2.117 cells after 3 days of treatment; assay type: cell-based, hepatitis B virus; details: Hepatitis B virus, HepG2.117, 72 h, HepG2.117 cells, 3 days of treatment, intracellular HBV DNA by real-time PCR; mean value; read-out: EC50 (μM, mean value)
Procedure, shortened: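 Inducible HBV-producing HepG2.117 line (Tet-off); 3-day exposure to serially diluted compound after induction; real-time PCR of intracellular viral DNA.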

in vitro = assay type: cell-based; details: human, HepG2 or HepG2.117 cells, 3-days incubation (unmarked values), ATPlite; mean value
Procedure, shortened: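 Luminescent ATP quantitation served as the viability endpoint following a 3- or 4-day incubation with test compounds.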

Row | SMILES | EC50 [1] [µM] | CC50 at 3 days (in vitro) [µM]
1 | COc1ccc(CNc2nc3c(c(=O)n2-c2ccc4ncoc4c2)CCN(C(=O)c2ccc(Cl)c(Cl)c2)C3)cc1 [Compound C131, 3-(1,3-benzoxazol-6-yl)-7-(3,4-dichlorobenzoyl)-2-{[(4-methoxyphenyl)methyl]amino}-5,6,7,8-tetrahydropyrido[3,4-d]pyrimidin-4(3H)-one] | 0.53 | > 50
2 | CC(C)Nc1nc2c(c(=O)n1-c1ccc(S(C)(=O)=O)cc1)CCN(C(=O)c1ccc3occc3c1)C2 [Compound C132, 7-(1-benzofuran-5-carbonyl)-3-[4-(methanesulfonyl)phenyl]-2-[(propan-2-yl)amino]-5,6,7,8-tetrahydropyrido[3,4-d]pyrimidin-4(3H)-one] | 0.7 | > 50
3 | CC(C)Nc1nc2c(c(=O)n1-c1ccc(S(C)(=O)=O)cc1)CCN(C(=O)c1[nH]c3ccccc3c1Cl)C2 [Compound C133, 7-(3-chloro-1H-indole-2-carbonyl)-3-[4-(methanesulfonyl)phenyl]-2-[(propan-2-yl)amino]-5,6,7,8-tetrahydropyrido[3,4-d]pyrimidin-4(3H)-one] | 1.94 | 28.3
4 | CC(C)Nc1nc2c(c(=O)n1-c1ccnnc1)CCN(C(=O)c1ccc(Cl)c(Cl)c1)C2 [Compound C134, 7-(3,4-dichlorobenzoyl)-2-[(propan-2-yl)amino]-3-(pyridazin-4-yl)-5,6,7,8-tetrahydropyrido[3,4-d]pyrimidin-4(3H)-one] | 4.39 | > 50
5 | COc1ccc(CNc2nc3c(c(=O)n2-c2ccnnc2)CCN(C(=O)c2ccc(Cl)c(Cl)c2)C3)cc1 [Compound C135, 7-(3,4-dichlorobenzoyl)-2-{[(4-methoxyphenyl)methyl]amino}-3-(pyridazin-4-yl)-5,6,7,8-tetrahydropyrido[3,4-d]pyrimidin-4(3H)-one] | 1.13 | 23.3
6 | CC(C)Nc1nc2c(c(=O)n1-c1ccc(S(C)(=O)=O)cc1)CCN(C(=O)c1cc3cc(F)ccc3[nH]1)C2 [Compound C136, 7-(5-fluoro-1H-indole-2-carbonyl)-3-[4-(methanesulfonyl)phenyl]-2-[(propan-2-yl)amino]-5,6,7,8-tetrahydropyrido[3,4-d]pyrimidin-4(3H)-one] | 0.24 | > 50
7 | CC(C)Nc1nc2c(c(=O)n1-c1ccc(S(C)(=O)=O)cc1)CCN(C(=O)c1cc3ccc(F)cc3[nH]1)C2 [Compound C137, 7-(6-fluoro-1H-indole-2-carbonyl)-3-[4-(methanesulfonyl)phenyl]-2-[(propan-2-yl)amino]-5,6,7,8-tetrahydropyrido[3,4-d]pyrimidin-4(3H)-one] | 0.3 | > 50
8 | CC(C)Nc1nc2c(c(=O)n1-c1ccc(S(C)(=O)=O)cc1)CCN(C(=O)c1ccn3nccc3c1)C2 [Compound C138, 3-[4-(methanesulfonyl)phenyl]-2-[(propan-2-yl)amino]-7-(pyrazolo[1,5-a]pyridine-5-carbonyl)-5,6,7,8-tetrahydropyrido[3,4-d]pyrimidin-4(3H)-one] | 5.98 | > 50
9 | CC(C)Nc1nc2c(c(=O)n1-c1ccc(S(C)(=O)=O)cc1)CCN(C(=O)c1ccc3ccoc3c1)C2 [Compound C139, 7-(1-benzofuran-6-carbonyl)-3-[4-(methanesulfonyl)phenyl]-2-[(propan-2-yl)amino]-5,6,7,8-tetrahydropyrido[3,4-d]pyrimidin-4(3H)-one] | 11.2 | > 50
10 | COc1ccc(CNc2nc3c(c(=O)n2-c2ccc(S(C)(=O)=O)cc2)C[C@H](C)N(C(=O)c2ccc(Cl)c(Cl)c2)C3)cc1 [Compound C140, (6S)-7-(3,4-dichlorobenzoyl)-3-[4-(methanesulfonyl)phenyl]-2-{[(4-methoxyphenyl)methyl]amino}-6-methyl-5,6,7,8-tetrahydropyrido[3,4-d]pyrimidin-4(3H)-one] | 1.88 | > 50
11 | COc1ccc(CNc2nc3c(c(=O)n2-c2ccc(-n4cccn4)cc2)CCN(C(=O)c2ccc(Cl)c(Cl)c2)C3)cc1 [Compound C143, 7-(3,4-dichlorobenzoyl)-2-{[(4-methoxyphenyl)methyl]amino}-3-[4-(1H-pyrazol-1-yl)phenyl]-5,6,7,8-tetrahydropyrido[3,4-d]pyrimidin-4(3H)-one] | 1.46 | > 50
12 | CC(C)Nc1nc2c(c(=O)n1-c1ccc(-n3cccn3)cc1)CCN(C(=O)c1ccc(Cl)c(Cl)c1)C2 [Compound C144, 7-(3,4-dichlorobenzoyl)-2-[(propan-2-yl)amino]-3-[4-(1H-pyrazol-1-yl)phenyl]-5,6,7,8-tetrahydropyrido[3,4-d]pyrimidin-4(3H)-one] | 0.6 | > 50
13 | COc1ccc(CNc2nc3c(c(=O)n2-c2ccc(S(C)(=O)=O)cc2)C[C@@H](C)N(C(=O)c2ccc(Cl)c(Cl)c2)C3)cc1 [Compound C145, (6R)-7-(3,4-dichlorobenzoyl)-3-[4-(methanesulfonyl)phenyl]-2-{[(4-methoxyphenyl)methyl]amino}-6-methyl-5,6,7,8-tetrahydropyrido[3,4-d]pyrimidin-4(3H)-one] | 0.31 | > 42
14 | C[C@@H]1Cc2c(nc(NCc3cscn3)n(-c3ccc(S(C)(=O)=O)cc3)c2=O)CN1C(=O)c1ccc(Cl)c(Cl)c1 [Compound C146, (6R)-7-(3,4-dichlorobenzoyl)-3-[4-(methanesulfonyl)phenyl]-6-methyl-2-{[(1,3-thiazol-4-yl)methyl]amino}-5,6,7,8-tetrahydropyrido[3,4-d]pyrimidin-4(3H)-one] | 1.95 | > 50
15 | Cc1c(C(=O)N2CCc3c(nc(NC(C)C)n(-c4ccc(S(C)(=O)=O)cc4)c3=O)C2)[nH]c2ccccc12 [Compound C147, 3-[4-(methanesulfonyl)phenyl]-7-(3-methyl-1H-indole-2-carbonyl)-2-[(propan-2-yl)amino]-5,6,7,8-tetrahydropyrido[3,4-d]pyrimidin-4(3H)-one] | 1.88 | > 50
16 | COc1ccc(CNc2nc3c(c(=O)n2-c2cccc4ocnc24)CCN(C(=O)c2ccc(Cl)c(Cl)c2)C3)cc1 [Compound C148, 3-(1,3-benzoxazol-4-yl)-7-(3,4-dichlorobenzoyl)-2-{[(4-methoxyphenyl)methyl]amino}-5,6,7,8-tetrahydropyrido[3,4-d]pyrimidin-4(3H)-one] | 1.48 | > 38
17 | COc1ccc(CNc2nc3c(c(=O)n2-c2ccc(C(N)=O)cc2)CCN(C(=O)c2ccc(Cl)c(Cl)c2)C3)cc1 [Compound C149, 4-[7-(3,4-dichlorobenzoyl)-2-{[(4-methoxyphenyl)methyl]amino}-4-oxo-5,6,7,8-tetrahydropyrido[3,4-d]pyrimidin-3(4H)-yl]benzamide] | 1.5 | 23.2
18 | C[C@@H]1Cc2c(nc(NCc3ccncn3)n(-c3ccc(S(C)(=O)=O)cc3)c2=O)CN1C(=O)c1ccc(Cl)c(Cl)c1 [Compound C150, (6R)-7-(3,4-dichlorobenzoyl)-3-[4-(methanesulfonyl)phenyl]-6-methyl-2-{[(pyrimidin-4-yl)methyl]amino}-5,6,7,8-tetrahydropyrido[3,4-d]pyrimidin-4(3H)-one] | 5.44 | > 50
19 | CC(C)Nc1nc2c(c(=O)n1-c1ccc(S(C)(=O)=O)cc1)CCN(C(=O)c1ccc3ncoc3c1)C2 [Compound C151, 7-(1,3-benzoxazole-6-carbonyl)-3-[4-(methanesulfonyl)phenyl]-2-[(propan-2-yl)amino]-5,6,7,8-tetrahydropyrido[3,4-d]pyrimidin-4(3H)-one] | 10.7 | > 50
20 | CC(C)Nc1nc2c(c(=O)n1-c1ccc(S(C)(=O)=O)cc1)CCN(C(=O)c1cc3ccccc3o1)C2 [Compound C152, 7-(1-benzofuran-2-carbonyl)-3-[4-(methanesulfonyl)phenyl]-2-[(propan-2-yl)amino]-5,6,7,8-tetrahydropyrido[3,4-d]pyrimidin-4(3H)-one] | 30.8 | > 50
21 | CCOC(=O)c1ccc(-n2c(NC(C)C)nc3c(c2=O)C[C@@H](C)N(C(=O)c2ccc(Cl)c(Cl)c2)C3)cc1 [Compound C153, ethyl 4-[(6R)-7-(3,4-dichlorobenzoyl)-6-methyl-4-oxo-2-[(propan-2-yl)amino]-5,6,7,8-tetrahydropyrido[3,4-d]pyrimidin-3(4H)-yl]benzoate] | 0.75 | > 50
22 | CC(C)Nc1nc2c(c(=O)n1-c1ccc(S(C)(=O)=O)cc1)C(C)CN(C(=O)c1ccc(Cl)c(Cl)c1)C2 (stereo not drawn) [Compound C154, 7-(3,4-dichlorobenzoyl)-3-[4-(methanesulfonyl)phenyl]-5-methyl-2-[(propan-2-yl)amino]-5,6,7,8-tetrahydropyrido[3,4-d]pyrimidin-4(3H)-one] | 0.52 | > 50
23 | CC(C)Nc1nc2c(c(=O)n1-c1ccc(S(C)(=O)=O)cc1)CCN(C(=O)c1ccc3c(c1)CCO3)C2 [Compound C155, 7-(2,3-dihydro-1-benzofuran-5-carbonyl)-3-[4-(methanesulfonyl)phenyl]-2-[(propan-2-yl)amino]-5,6,7,8-tetrahydropyrido[3,4-d]pyrimidin-4(3H)-one] | 5.29 | > 50
24 | CNC(=O)c1ccc(-n2c(NC(C)C)nc3c(c2=O)C[C@@H](C)N(C(=O)c2ccc(Cl)c(Cl)c2)C3)cc1 [Compound C157, 4-[(6R)-7-(3,4-dichlorobenzoyl)-6-methyl-4-oxo-2-[(propan-2-yl)amino]-5,6,7,8-tetrahydropyrido[3,4-d]pyrimidin-3(4H)-yl]-N-methylbenzamide] | 0.04 | > 50
